{"source": "paper doi:10.1101/2023.05.15.540887", "about": "“Comparative analysis of drug-like EP300/CREBBP acetyltransferase inhibitors” (bioRxiv, 2023)", "key": {"HOP-92": {"system": "HOP-92", "assay": "NCI-60 growth inhibition (sulforhodamine B)", "type": "cell-based, human", "settings": "HOP-92 (Non-Small Cell Lung Cancer), negative log of Molar conc., LCONC -8"}, "MALME-3M": {"system": "MALME-3M", "assay": "NCI-60 growth inhibition (sulforhodamine B)", "type": "cell-based, human", "settings": "MALME-3M (Melanoma), negative log of Molar conc., LCONC -8"}, "UACC-62": {"system": "UACC-62", "assay": "NCI-60 growth inhibition (sulforhodamine B)", "type": "cell-based, human", "settings": "UACC-62 (Melanoma), negative log of Molar conc., LCONC -8"}, "SK-MEL-28": {"system": "SK-MEL-28", "assay": "NCI-60 growth inhibition (sulforhodamine B)", "type": "cell-based, human", "settings": "SK-MEL-28 (Melanoma), negative log of Molar conc., LCONC -8"}, "[1]": {"system": "histone H3 acetylation in MCF-7 cells", "assay": "Western blot analysis of histone acetylation (H3K18Ac, H3K27Ac, H3K23Ac) in MCF-7 cells", "type": "cell-based, human", "settings": "3 h, 8 nM – 5 μM, compared among 1-3", "procedure": "Next, we sought to quantitatively benchmark the properties of 1-3 in living cells. EP300 and CREBBP modify a wide variety of substrates in biochemical experiments and upon ectopic overexpression.[2] However, two well-characterized cellular histone lysine substrates of these enzymes are H3K18 and H3K27.[26] Even though H3K18Ac is the more abundant of the two markers, H3K27Ac is also of great interest due to its association with active enhancer regions. […] Cells were treated with escalating doses of 1-3 and harvested at 3 h to avoid overt cytotoxicity and allow the direct effects on acetylation to be observed (Fig. 3a). […] Control experiments indicated levels of H3K23Ac, which is not regulated by EP300/CREBBP, were not affected.\nMCF-7 cells were plated in 1700 µL culture medium at 1 x 10^6 cells per well in 6-well dishes. After 16-24 h cells were treated with 300 µL of 1-3-containing media to yield a final concentration of 8 nM, 40 nM, 200 nM, 1 µM, or 5 µM EP300/CREBBP inhibitor (0.1% final concentrations of DMSO). Controls were treated with vehicle DMSO (0.1%). […]\nHistone samples were quantified using the Precision Red Protein Assay (Cytoskeleton #ADV02). […]"}, "SNB-19": {"system": "SNB-19", "assay": "NCI-60 growth inhibition (sulforhodamine B)", "type": "cell-based, human", "settings": "SNB-19 (CNS Cancer), negative log of Molar conc., LCONC -8"}, "IGROV1": {"system": "IGROV1", "assay": "NCI-60 growth inhibition (sulforhodamine B)", "type": "cell-based, human", "settings": "IGROV1 (Ovarian Cancer), negative log of Molar conc., LCONC -8"}, "OVCAR-4": {"system": "OVCAR-4", "assay": "NCI-60 growth inhibition (sulforhodamine B)", "type": "cell-based, human", "settings": "OVCAR-4 (Ovarian Cancer), negative log of Molar conc., LCONC -8"}, "OVCAR-3": {"system": "OVCAR-3", "assay": "NCI-60 growth inhibition (sulforhodamine B)"}, "[2]": {"settings": "Homo sapiens, read-out: GI50 NLOGVALUE (converted)"}, "[3]": {"settings": "Homo sapiens, read-out: IC50 NLOGVALUE"}, "[4]": {"settings": "Homo sapiens, read-out: LC50 NLOGVALUE"}, "[5]": {"settings": "Homo sapiens, read-out: GI50 NLOGVALUE"}}}
{"smiles": "C[C@H](CN[C@@H](C(=O)Nc1ccc(-c2cnn(C)c2)cn1)c1ccccc1)c1ccc(C#N)cc1", "note": "[CPI-1612]", "values": [{"measurement": "TGI NLOGVALUE", "setting": "HOP-92", "result": 4}, {"measurement": "GI50", "setting": "HOP-92; [2]", "result": 1.62, "unit": "µM"}, {"measurement": "IC50", "setting": "HOP-92; [3]", "result": "> 100", "unit": "µM"}, {"measurement": "CC50", "setting": "HOP-92; [4]", "result": "> 100", "unit": "µM"}, {"measurement": "GI50", "setting": "MALME-3M; [5]", "result": "< 0.01", "unit": "µM"}, {"measurement": "IC50", "setting": "MALME-3M; [3]", "result": "> 100", "unit": "µM"}, {"measurement": "CC50", "setting": "MALME-3M; [4]", "result": "> 100", "unit": "µM"}, {"measurement": "TGI NLOGVALUE", "setting": "MALME-3M", "result": 4}, {"measurement": "GI50", "setting": "UACC-62; [5]", "result": "> 100", "unit": "µM"}, {"measurement": "IC50", "setting": "UACC-62; [3]", "result": "> 100", "unit": "µM"}, {"measurement": "CC50", "setting": "UACC-62; [4]", "result": "> 100", "unit": "µM"}, {"measurement": "TGI NLOGVALUE", "setting": "UACC-62", "result": 4}, {"measurement": "GI50", "setting": "SK-MEL-28; [2]", "result": 14.1, "unit": "µM"}, {"measurement": "IC50", "setting": "SK-MEL-28; [3]", "result": "> 100", "unit": "µM"}, {"measurement": "CC50", "setting": "SK-MEL-28; [4]", "result": "> 100", "unit": "µM"}, {"measurement": "TGI NLOGVALUE", "setting": "SK-MEL-28", "result": 4}, {"measurement": "inhibition of histone acetylation (H3K18Ac, H3K27Ac), Western blot", "setting": "[1]", "result": "most potent activity"}, {"measurement": "GI50", "setting": "SNB-19; [2]", "result": 0.0955, "unit": "µM"}, {"measurement": "IC50", "setting": "SNB-19; [3]", "result": "> 100", "unit": "µM"}, {"measurement": "CC50", "setting": "SNB-19; [4]", "result": "> 100", "unit": "µM"}, {"measurement": "TGI NLOGVALUE", "setting": "SNB-19", "result": 4}, {"measurement": "GI50", "setting": "IGROV1; Homo sapiens, IGROV-1, read-out: GI50 NLOGVALUE (converted)", "result": 0.0759, "unit": "µM"}, {"measurement": "IC50", "setting": "IGROV1; Homo sapiens, IGROV-1, read-out: IC50 NLOGVALUE (converted)", "result": 57.5, "unit": "µM"}, {"measurement": "CC50", "setting": "IGROV1; Homo sapiens, IGROV-1, read-out: LC50 NLOGVALUE", "result": "> 100", "unit": "µM"}, {"measurement": "TGI NLOGVALUE", "setting": "IGROV1", "result": 4}, {"measurement": "GI50", "setting": "OVCAR-4; [2]", "result": 2.04, "unit": "µM"}, {"measurement": "IC50", "setting": "OVCAR-4; [3]", "result": "> 100", "unit": "µM"}, {"measurement": "CC50", "setting": "OVCAR-4; [4]", "result": "> 100", "unit": "µM"}, {"measurement": "TGI NLOGVALUE", "setting": "OVCAR-4", "result": 4}, {"measurement": "GI50", "setting": "OVCAR-3; Homo sapiens, OVCAR-3, read-out: GI50 NLOGVALUE", "result": 0.186, "unit": "µM"}, {"measurement": "IC50", "setting": "OVCAR-3; Homo sapiens, OVCAR-3, read-out: IC50 NLOGVALUE", "result": 24, "unit": "µM"}, {"measurement": "CC50", "setting": "OVCAR-3; Homo sapiens, OVCAR-3, read-out: LC50 NLOGVALUE", "result": "> 100", "unit": "µM"}, {"measurement": "TGI NLOGVALUE", "setting": "OVCAR-3; OVCAR-3 (Ovarian Cancer), negative log of Molar conc., LCONC -8", "result": 4}]}
